Test results taken from patent publication US20090325891A1, “Cartilage regeneration-promoting agent” (EISAI FOOD & CHEMICAL CO., LTD., priority 2006, published 2009).
Values joined by “and” are separate entries in the source; they are usually repeats but may differ in a detail not shown here. Identical values can stand only once. “Also recorded” adds a separate entry of the source.

Experiments:
[1] = test system: lateral vastus muscles and femoral biceps muscles; assay: Muscle weight ratio (injured side vs opposite side) in rabbit articular cartilage injury model; type: in vivo; settings: Example 2; for Muscle weight ratio Femoral biceps muscle / Muscle weight ratio Lateral vastus muscle: individual rabbits, injured side vs opposite side, hydrochloride
Description: (§1) The rabbit articular cartilage injury model was prepared based on the method of Hashida et. al. (See, Macromolecular Bioscience, 3, (2003) 596-603), and Tamai et. al. (See, Carbohydrate Polymers, 48, (2002) 369-378, and Carbohydrate Polymers, 54, (2003) 251-262).
(§2) Initially, each animal was anesthetized by injecting pentobarbital sodium (40 mg/kg) intraperitoneally. Next, hairs at the knee joint of the left hind limb of the animal were clipped and disinfected with 0.5% chlorhexidine gluconate solution and 70% ethanol solution. Then, an incision was made on the skin on the lateral portion of the knee joint from the central part of the femur toward the tibial tuberosity. The articular capsule was exposed and incised. Further, the knee joint was exposed completely by dislocating the patella toward the medial side. Three holes of 2 mm size in diameter and 4 mm in depth were made by using a handdrill one at the medial trochlear ridge and two at the trochlear sulcus of the femur. The incised portion was washed with sterile saline solution and the articular capsule, and at the same time, the subcutaneous tissues and the skin were sutured with a synthetic absorbent thread and with nylon thread, respectively. During one week after the operation, the sutured portion of the skin was disinfected by povidone-iodine once a day and 10 mg/kg of oxytetracycline hydrochloride was subcutaneously administered twice a day.
(§3) After the formation of injury to articular cartilage, for the HT group, the product containing 20% by mass of hydroxytyrosol obtained in Production Example 1 was dissolved in tap water and administered using a water bottle at a rate of 500 mg/kg (100 mg/kg of hydroxytyrosol) per day for 21 days. After making sure that all of the water containing the drug was taken in, rabbits were fed with sterile tap water. The control was fed with sterile tap water ad libitum.
For each animal, left and right lateral vastus muscles and femoral biceps muscles were collected, and weights were measured. The muscle weight ratio was calculated by comparing the side, in which cartilage injury was made, with the opposite side, and Student's t-test was performed between the control group and the HT group.
(§4) In the same way as in Example 1, the cartilage regeneration-promoting effects were investigated with respect to hydroxytyrosol (100 mg/kg per day, HT group) and with respect to glucosamine hydrochloride (800 mg/kg per day, hereinafter, GAH group) for comparison. The control group was set in the same way as in Example 1.

[2] = test system: articular cartilage injury of the knee in rabbits; assay: Histopathological examination (hematoxylin/eosin) of injured knee articular cartilage; type: in vivo, rabbit; settings: Example 2; hematoxylin/eosin staining
Description: as §1, §2, §3
For each animal, femur was collected and fixed by a 10% neutral buffered forrnalin solution. […]

proteoglycan = assay: Image analysis of Safranin O staining (proteoglycan) of knee articular cartilage; type: in vivo, rabbit; settings: Example 2
Description: as §1, §2, §3
The specimens stained with Safranin O and with Alcian blue were prepared in the same way as mentioned above and subjected to image analysis. The 200 times magnified images of specimens were scanned into the computer using a digital camera (Olympus DP70, manufactured by Olympus Corporation). Then, two locations (20,000 pixels) were randomly sampled, and the density of the site stained in a specific color (site stained with Safranin O:
corresponding to proteoglycan, site stained with Alcian blue: corresponding to glycosaminoglycan) was measured. For the obtained values, Student's t-test was performed between the control group and the HT group.
as §4

[3] = test system: articular cartilage injury of the knee in rabbits; assay: Macroscopic degree of healing in rabbit articular cartilage injury model; type: in vivo; settings: Example 2; for cartilage healing / regeneration compared with the control group: HT p<0.01, GAH p<0.05; for cartilage healing / regeneration compared with the control group / Degree of healing Distal trochlear sulcus / Degree of healing Medial trochlear ridge / Degree of healing Proximal trochlear sulcus: hydrochloride; for Degree of healing Distal trochlear sulcus / Degree of healing Medial trochlear ridge / Degree of healing Proximal trochlear sulcus: individual rabbits, 3 weeks after operation, HT 100 mg/kg per day, GAH 800 mg/kg per day
Description: The cartilage regeneration-promoting effect of hydroxytyrosol obtained in Production Example 1 was investigated using a rabbit articular cartilage injury model prepared experimentally.
Six female and six male rabbits (New Zealand white, 16 weeks old when introduced, body weight: from 2.00 kg to 2.55 kg) were habituated for one week under the conditions of one rabbit per cage, temperature: from 23° C. to 25° C., relative humidity: from 50% to 60%, a light/dark cycle of 12 h, 12 times air changes per hour). During this period, animals were fed with feed, which is sold commercially, and sterile tap water ad libitum.
After the period, rabbits were divided at random into two groups so that each group contains three female and three male rabbits. One group was designated as a control group and the other as a hydroxytyrosol administration group (hereinafter, HT group).
as §1, §2, §3
After the experimental period, all animals were euthanized by overdose using an intravenous injection of pentobarbital sodium (80 mg/kg). Then, knee joints were incised, and the conditions of joint cartilages were macroscopically observed. The degree, to which the injury of cartilage was healed, was evaluated based on the following standards.
• −: Degree of healing is less than 50% • +: Degree of healing is from 50% to 60% • ++: Degree of healing is from 60% to 80% • +++: Degree of healing is from 80% to 100%
Further, the above evaluation was assigned numbers: (−) was assigned with 0 point (+) was assigned with 1 point, (++) was assigned with 2 points, and (+++) was assigned with 3 points. The degree of healing of articular cartilage was expressed numerically, and Mann-Whitney's U test was performed between the control group and the HT group.
as §4

## Cl.N[C@H]1C(O)O[C@H](CO)[C@@H](O)[C@@H]1O (some centres unmarked) [GAH group, glucosamine hydrochloride, reference compound]
[1]
  muscle weight of the femoral biceps muscle (in words): marked decrease
  muscle weight of the lateral vastus muscle (in words): slight decrease
[1]; group mean, 6 rabbits, control 83.80
  Muscle weight ratio Femoral biceps muscle, Mean: 83.62%
[1]; group mean, 6 rabbits, control 91.91
  Muscle weight ratio Lateral vastus muscle, Mean: 92.03%
[1]; female rabbits
  Muscle weight ratio Femoral biceps muscle: 78.13% and 86.21% and 65.10%
  Muscle weight ratio Lateral vastus muscle: 82.24% and 96.46% and 90.85%
[1]; male rabbits
  Muscle weight ratio Femoral biceps muscle: 92.37% and 86.12% and 93.81%
  Muscle weight ratio Lateral vastus muscle: 98.02% and 89.59% and 94.99%
[2]
  histopathological findings at the site at which injury was created: almost the same findings as those of the HT group
proteoglycan; injured site of cartilage
  density at the site stained with Safranin O (proteoglycan), injured site of cartilage, vs control: significant increase
proteoglycan; normal site and growth zone
  density at the site stained with Safranin O, normal site and growth zone of cartilage, vs control: no difference
[3]
  cartilage healing / regeneration compared with the control group: promoted significantly
[3]; listed as glucosamine hydrochloride
  cartilage healing / regeneration compared with the control group: promoted the regeneration of cartilage
[3]; female rabbits
  Degree of healing Distal trochlear sulcus: ++ (Degree of healing is from 60% to 80%); also recorded: +++ (Degree of healing is from 80% to 100%)
  Degree of healing Medial trochlear ridge: +++ (Degree of healing is from 80% to 100%)
  Degree of healing Proximal trochlear sulcus: ++ (Degree of healing is from 60% to 80%); also recorded: +++ (Degree of healing is from 80% to 100%)
[3]; male rabbits
  Degree of healing Distal trochlear sulcus: ++ (Degree of healing is from 60% to 80%); also recorded: + (Degree of healing is from 50% to 60%)
  Degree of healing Medial trochlear ridge: +++ (Degree of healing is from 80% to 100%); also recorded: ++ (Degree of healing is from 60% to 80%)
  Degree of healing Proximal trochlear sulcus: + (Degree of healing is from 50% to 60%); also recorded: +++ (Degree of healing is from 80% to 100%)
[3]; − = 0 to +++ = 3 points, control group 5.33
  average value of quantified data (degree of healing, points): 7.17
